In one assay the target is T1, NTAN1 C75A (Homo sapiens, UniProt Q96AB6, C75A).
T1 construct: The gene for full-length NTAN1 was cloned into pET-21a(+); made in house; host or cells: E. coli Rosetta 2(DE3)
T1 sequence (Q96AB6 1-310 C75A): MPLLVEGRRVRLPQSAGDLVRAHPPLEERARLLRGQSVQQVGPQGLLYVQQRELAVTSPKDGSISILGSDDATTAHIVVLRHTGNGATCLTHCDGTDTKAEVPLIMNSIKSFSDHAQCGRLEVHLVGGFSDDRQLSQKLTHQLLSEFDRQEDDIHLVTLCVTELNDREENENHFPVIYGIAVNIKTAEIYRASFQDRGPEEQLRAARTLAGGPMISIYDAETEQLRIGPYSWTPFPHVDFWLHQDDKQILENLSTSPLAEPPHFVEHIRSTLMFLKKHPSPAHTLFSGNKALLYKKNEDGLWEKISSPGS
As to the kind of experiment: In vitro deamidation assay, NTAN1 C75A mutant. The note with it: substrate NRAAA, 100 μM, 37 °C, pH 7.0, LC-MS; vs wild-type (Figure 1e); three independent experiments. It counts as biochemical. The source says:
(§1) NTAN1 mutants were constructed using QuikChange Ⅱ Site-Directed Mutagenesis Kit (Agilent Technologies, Santa Clara, CA, USA). NTAN1 mutants, Q51A, S69A, T73A, T74A, C75A, H92A, S254A, T255A, and E260A were generated. The mutants were expressed and purified as for NTAN1.
(§2) Peptides with Nt-Asn which mimic potential substrates of NTAN1 were synthesized: NRA, NRAA, NRAAA, NRQVA, NRQVAA, NRQVAAA, NFAAR, NLAAR, NRAAR, NAAAR, NNAAR, NPAAR, NGAAR, and NDAAR. Non-Nt-Asn peptides, QRAAA and VRAAA, were also synthesized. NTAN1 (at concentrations of 0.5 μM, 0.16 μM, or 0.04 μM) and the peptides (at a concentration of 100 μM) were mixed and incubated at 37 °C in a buffer containing 200 mM NaCl and 10 mM HEPES-NaOH (pH 7.0). […] The deamidation coefficient of peptides catalyzed by NTAN1 was assessed by the slope of exponential curve drawn from the concentration of the substrate over incubation time.
(§3) The peptides were quantified by an LC-MS system (1260 Infinity/6430 Triple Quad, Agilent Technologies) equipped with a binary pump (G1312B), a thermostated column compartment (G1316C), a thermostat (G1330B), and an autosampler (G1367E). […] The data acquisition and processing were performed by using MassHunter Workstation Software Quantitative Analysis (Version B.05.00; Agilent Technologies, Santa Clara, CA, USA). […]

A further assay relates to NTAN1 S254A. Briefly: In vitro deamidation assay, NTAN1 S254A mutant. It is filed as biochemical, human. The note with it: substrate NRAAA, 100 μM, 37 °C, pH 7.0, LC-MS (Figure 3b); three independent experiments.
Source text: as §1, §2, §3

A further assay deals with T2, NTAN1 Q51A (Homo sapiens, UniProt Q96AB6, Q51A).
T2 construct: The gene for full-length NTAN1 was cloned into pET-21a(+); made in house; host or cells: E. coli Rosetta 2(DE3)
T2 sequence (Q96AB6 1-310 Q51A): T1 sequence (Q96AB6 1-310 C75A) with Q51A, A75C
Briefly: In vitro deamidation assay, NTAN1 Q51A mutant. It counts as biochemical. The note with it: substrate NRAAA, 100 μM, 37 °C, pH 7.0, LC-MS (Figure 3e); three independent experiments.
Source text: as §1, §2, §3

Another assay deals with T3, NTAN1 T74A (Homo sapiens, UniProt Q96AB6, T74A).
T3 construct: The gene for full-length NTAN1 was cloned into pET-21a(+); made in house; host or cells: E. coli Rosetta 2(DE3)
T3 sequence (Q96AB6 1-310 T74A): T1 sequence (Q96AB6 1-310 C75A) with T74A, A75C
Briefly: In vitro deamidation assay, NTAN1 T74A mutant. It counts as biochemical. The note with it: substrate NRAAA, 100 μM, 37 °C, pH 7.0, LC-MS (Figure 3f); three independent experiments.
Source text: as §1, §2, §3

Where a chain is given by its changes, count along the chain named.

For the substance “NRAAA [synthesized peptide with Nt-Asn, 5 mer model substrate of NTAN1]”, the “Deamidation activity of NTAN1 C75A” value on NTAN1 C75A is listed as “completely abolished”. In addition, the “Lower deamidation rate of NTAN1 S254A than wild-type NTAN1” value in the assay with NTAN1 S254A is reported as “threefold”. For the same substance, the “Deamidation activity of NTAN1 Q51A” value at NTAN1 Q51A is reported as “lost most deamidation activity”. In addition, the “Enzymatic activity of NTAN1 T74A” value on NTAN1 T74A is listed as “abolished”.

Source of the values: publication PMC7022378, “Structural Analyses on the Deamidation of N-Terminal Asn in the Human N-Degron Pathway” (Biomolecules, 2020).
